Test results: patent publication US10723727B2, “Tubulysin analogs and methods for their preparation” (priority 2016, dated 2020)

Biological target: T1, tubulin/RB3-stathmin-like-domain (RB3-SLD-tdm) complex (Sus scrofa, UniProt P02550+P02554)
T1 construct: purchased Cytoskeleton, Inc. T240; host or cells: RB3-SLD was made in house in E. coli
Test: Tubulin Peptide-Binding Site Competition Assay (fluorescence polarization)
Design: species or system Porcine
Details: FP competition with BODIPY-labeled vinca peptide probe; read after five hours at 22° C.; read-out: Tubulin Peptide-Binding Site Competition Assay IC50
Procedure: Tubulin Peptide-Binding Site Competition Assay
Tubulin binding potency was measured for payloads or cysteine-capped linker-payloads using a fluorescence polarization (FP) competition assay. The binding of a BODIPY-labeled vinca peptide probe (# B31) to a tubulin/RB3-stathmin-like-domain (RB3-SLD-tdm) complex generates a high FP signal, which can be decreased when mixing with test compounds that compete with the FP probe. The order of addition for the reagents in the FP assay was designed to pre-mix the FP probe with various concentrations of the test compound before mixing them with the tubulin/RB3-SLD-dm complex. The final assay concentrations of the probe, tubulin and RB3-SLD-dm were 3, 6, and 100 nM, respectively. IC50 for each test compound is obtained by fitting the dose-dependent FP signal change using GraphPad Prism version 5 software (La Jolla, Calif.) while Ki is converted from the IC50 using the equations described previously (Nikolovska-Coleska et al., 2004). The FP signals were measured on an Infinite M1000 (Tecan, San Jose, Calif.) using ProxiPlate-384 F Plus, Black (Perkin-Elmer, Waltham, Mass., Cat #6008260) with 15 μL of solution per well. Sample dilution and mixing were done using a Beckman Biomek XF (Brea, Calif.). Porcine tubulin was purchased from Cytoskeleton, Inc. (Denver, Colo., Cat #T240) and RB3-SLD was expressed in E. coli. and purified on Q and then Superdex75 columns. The FP assay test for each compound was run in duplicates by mixing 6 μL of solution 1 containing 2.5× test compound (2.5× serial dilution from 7.8 μM maximum concentration, 11 total concentrations) and 7.5 nM of the FP probe in 80 mM PIPES, pH 7.0, 0.02% Tween 20, 2 mM MgCl2, 1 mM EGTA and 3% DMSO with 9 μL of solution 2 containing […] porcine tubulin and 167 nM of RB3-SLD-dm peptide ([…]-[…]) on ProxiPlate-384 micro-plates.

| Compound | IC50 [nM] |
| --- | --- |
| CC[C@H](C)[C@H](NC(=O)[C@@]1(C)CCCN1C)C(=O)N(C)[C@H](C[C@@H](OC(C)=O)c1nc(C(=O)NCCc2cnn(C)c2)cs1)C(C)C [#B77, 1,2-dimethyl-D-prolyl-N-[(1R,3R)-1-(acetyloxy)-4-methyl-1-(4-{[2-(1-methyl-1H-pyrazol-4-yl)ethyl]carbamoyl}-1,3-thiazol-2-yl)pentan-3-yl]-N-methyl-L-isoleucinamide] | 249 |
| CC[C@H](C)[C@H](NC(=O)[C@@]1(C)CCCN1C)C(=O)N(C)[C@H](C[C@@H](OC(C)=O)c1nc(C(=O)NCCNC(=O)c2ccccc2)cs1)C(C)C [#B60, 1,2-dimethyl-D-prolyl-N-[(1R,3R)-1-(acetyloxy)-1-(4-{[2-(benzoylamino)ethyl]carbamoyl}-1,3-thiazol-2-yl)-4-methylpentan-3-yl]-N-methyl-L-isoleucinamide] | 108 |
| CC[C@H](C)[C@H](NC(=O)[C@@]1(C)CCCN1C)C(=O)N(C)[C@H](C[C@@H](OC(C)=O)c1nc(C(=O)NC2(Cc3ccccc3)CC2)cs1)C(C)C [#B55] | 28.4 |
| CC[C@H](C)[C@H](NC(=O)[C@@]1(C)CCCN1C)C(=O)N(C)[C@H](C[C@@H](OC(C)=O)c1nc(C(=O)NC2(c3ccccc3)CC2)cs1)C(C)C [#B52, 1,2-dimethyl-D-prolyl-N-[(1R,3R)-1-(acetyloxy)-4-methyl-1-{4-[(1-phenylcyclopropyl)carbamoyl]-1,3-thiazol-2-yl}pentan-3-yl]-N-methyl-L-isoleucinamide] | 61.8 |
| CC[C@H](C)[C@H](NC(=O)[C@@]1(C)CCCN1C)C(=O)N(C)[C@H](C[C@@H](OC(C)=O)c1nc(C(=O)NCCc2cncnc2)cs1)C(C)C [#B71, 1,2-dimethyl-D-prolyl-N-[(1R,3R)-1-(acetyloxy)-4-methyl-1-(4-{[2-(pyrimidin-5-yl)ethyl]carbamoyl}-1,3-thiazol-2-yl)pentan-3-yl]-N-methyl-L-isoleucinamide] | 85.1 |
| CC[C@H](C)[C@H](NC(=O)[C@@]1(C)CCCN1C)C(=O)N(C)[C@H](C[C@@H](OC(C)=O)c1nc(C(=O)NCCc2c[nH]cn2)cs1)C(C)C [#B54, 1,2-dimethyl-D-prolyl-N-[(1R,3R)-1-(acetyloxy)-1-(4-{[2-(1H-imidazol-4-yl)ethyl]carbamoyl}-1,3-thiazol-2-yl)-4-methylpentan-3-yl]-N-methyl-L-isoleucinamide] | 60.6 |
| CC[C@H](C)[C@H](NC(=O)[C@@]1(C)CCCN1C)C(=O)N(C)[C@H](C[C@@H](OC(C)=O)c1nc(C(=O)NCCc2cnccn2)cs1)C(C)C [#B68, 1,2-dimethyl-D-prolyl-N-{(1R,3R)-1-(acetyloxy)-4-methyl-1-(4-{[2-(pyrazin-2-yl)ethyl]carbamoyl}-1,3-thiazol-2-yl)pentan-3-yl]-N-methyl-L-isoleucinamide] | 84.7 |
| CC[C@H](C)[C@H](NC(=O)[C@@]1(C)CCCN1C)C(=O)N(C)[C@H](C[C@@H](OC(C)=O)c1nc(C(=O)NCCN2CCOCC2)cs1)C(C)C [#B46, 1,2-dimethyl-D-prolyl-N-[(1R,3R)-1-(acetyloxy)-4-methyl-1-(4-{[2-(morpholin-4-yl)ethyl]carbamoyl}-1,3-thiazol-2-yl)pentan-3-yl]-N-isomethyl-L-leucinamide] | 282 |
| CC[C@H](C)[C@H](NC(=O)C(C)(C)N)C(=O)N(C)[C@H](C[C@@H](OC(C)=O)c1nc(C(=O)N[C@@H](Cc2ccccc2)C[C@H](C)C(=O)OC)cs1)C(C)C [#B35, 2-methylalanyl-N-[(1R,3R)-1-(acetyloxy)-1-(4-{[(2R,4S)-5-methoxy-4-methyl-5-oxo-1-phenylpentan-2-yl]carbamoyl}-1,3-thiazol-2-yl)-4-methylpentan-3-yl]-N-methyl-L-isoleucinamide] | 96.8 |
| CC[C@H](C)[C@H](NC(=O)[C@@]1(C)CCCN1C)C(=O)N(C)[C@H](C[C@@H](OC(C)=O)c1nc(C(=O)NCCCN2CCCC2=O)cs1)C(C)C [#B43, 1,2-dimethyl-D-prolyl-N-[(1R,3R)-1-(acetyloxy)-4-methyl-1-(4-{[3-(2-oxopyrrolidin-1-yl)propyl]carbamoyl}-1,3-thiazol-2-yl)pentan-3-yl]-N-methyl-L-isoleucinamide] | 51.8 |
| CC[C@H](C)[C@H](NC(=O)[C@@]1(C)CCCN1C)C(=O)N(C)[C@H](C[C@@H](OC(C)=O)c1nc(C(=O)NC(Cc2ccccc2)c2ccccc2)cs1)C(C)C (stereo partly drawn) [#B74, 1,2-dimethyl-D-prolyl-N-[(1R,3R)-1-(acetyloxy)-1-{4-[(1,2-diphenylethyl)carbamoyl]-1,3-thiazol-2-yl}-4-methylpentan-3-yl]-N-methyl-L-isoleucinamide] | 89.3 |
| CC[C@H](C)[C@H](NC(=O)[C@@]1(C)CCCN1C)C(=O)N(C)[C@H](C[C@@H](OC(C)=O)c1nc(C(=O)NCCN2CCOC2=O)cs1)C(C)C [#B64, 1,2-dimethyl-D-prolyl-N-[(1R,3R)-1-(acetyloxy)-4-methyl-1-(4-{[2-(2-oxo-1,3-oxazolidin-3-yl)ethyl]carbamoyl}-1,3-thiazol-2-yl)pentan-3-yl]-N-methyl-L-isoleucinamide] | 73 |
| CC[C@H](C)[C@H](NC(=O)[C@@]1(C)CCCN1C)C(=O)N(C)[C@H](C[C@@H](OC(C)=O)c1nc(C(=O)NCCc2ccc(-c3ccccc3)cc2)cs1)C(C)C [#B45, 1,2-dimethyl-D-prolyl-N-[(1R,3R)-1-(acetyloxy)-1-(4-{[2-(biphenyl-4-yl)ethyl]carbamoyl}-1,3-thiazol-2-yl)-4-methylpentan-3-yl]-N-methyl-L-isoleucinamide] | 436 |
| CC[C@H](C)[C@H](NC(=O)[C@@]1(C)CCCN1C)C(=O)N(C)[C@H](C[C@@H](OC(C)=O)c1nc(C(=O)NCCn2cccn2)cs1)C(C)C [#B56, 1,2-dimethyl-D-prolyl-N-[(1R,3R)-1-(acetyloxy)-4-methyl-1-(4-{[2-(1H-pyrazol-1-yl)ethyl]carbamoyl}-1,3-thiazol-2-yl)pentan-3-yl]-N-methyl-L-isoleucinamide] | 33.6 |
| CC[C@H](C)[C@H](NC(=O)[C@@]1(C)CCCN1C)C(=O)N(C)[C@H](C[C@@H](OC(C)=O)c1nc(C(=O)NC2(Cc3ccccc3)CCCCC2)cs1)C(C)C [#B47, 1,2-dimethyl-D-prolyl-N-[(1R,3R)-1-(acetyloxy)-1-{4-[(1-benzylcyclohexyl)carbamoyl]-1,3-thiazol-2-yl}-4-methylpentan-3-yl]-N-methyl-L-isoleucinamide] | 202 |
| CC[C@H](C)[C@H](NC(=O)[C@@]1(C)CCCN1C)C(=O)N(C)[C@H](C[C@@H](OC(C)=O)c1nc(C(=O)NCC2(c3ccccc3)CCN(C)CC2)cs1)C(C)C [#B65, 1,2-dimethyl-D-prolyl-N-[(1R,3R)-1-(acetyloxy)-4-methyl-1-(4-{[(1-methyl-4-phenylpiperidin-4-yl)methyl]carbamoyl}-1,3-thiazol-2-yl)pentan-3-yl]-N-methyl-L-isoleucinamide] | 33.8 |
| CC[C@H](C)[C@H](NC(=O)[C@@]1(C)CCCN1C)C(=O)N(C)[C@H](C[C@@H](OC(C)=O)c1nc(C(=O)NCCn2nc(C)cc2C)cs1)C(C)C [#B42, 1,2-dimethyl-D-prolyl-N-[(1R,3R)-1-(acetyloxy)-1-(4-{[2-(3,5-dimethyl-1H-pyrazol-1-yl)ethyl]carbamoyl}-1,3-thiazol-2-yl)-4-methylpentan-3-yl]-N-methyl-L-isoleucinamide] | 27.6 |
